“Also recorded” adds a separate entry of the source.
Tests used:
[1] = tested on: mice transplanted with T-ALL (ENU-induced murine leukemia); assay: In vivo efficacy in mice transplanted with T-ALL
Procedure: Leukemic mice were generated by the usage of the tumorigenic agent N-ethyl-N-nitrosourea (ENU). […] Leukemic blasts coming from the spleen of leukemic animals were transplanted into C57BL/6Ly5.1-recipient mice. Three days after transplantation, a time sufficient for leukemic blasts to home the bone marrow of the host, we started to treat the animals.
Experiments involving mice were performed in agreement with Italian guidelines and after the approval of the Institutional Review Board of the European Institute of Oncology. Leukemic mice were generated by a single administration of the tumorigenic agent N-ethyl-N-nitrosourea (Sigma, 50 mg/kg intraperitoneally). Spleen cells from leukemic C57BL6/Ly5.2 mice were injected intravenously (2 × 10^6 cells/mouse) into non-irradiated, recipient C57BL6/Ly5.1 mice. PF-0077736 was administered intraperitoneally starting from day 3 after the transplant of leukemic cells. Mice received doses of PF-0077736 (40 mg/kg each dose) every 3 days for four treatments (q3dx4). Kaplan-Meyer rank test was used to compare the survival rate between treated and control mice.

[2] = tested on: NALM-6 cell line; assay: Cell cycle analysis (propidium iodide); assay type: cell-based, human; settings: 0.1, 0.5, 1 μM, 24 h; reduced percentage of cells in G1 phase
Procedure: (§1) The effect of the inhibition of Chk1 pathway on cell cycle progression was evaluated in RPMI-8402, BV-173, SUP-B15, and NALM-6 cell lines. Cells were incubated with increasing concentrations of PF-00477736 for 6 and 24 h and then stained with propidium iodide to quantify the DNA amount.
(§2) In order to evaluate the effect of PF-00477736 on cell cycle progression, NALM-6, SUPB-15, RPMI-8402, and BV-173 cell lines were seeded in a 24-well plate at 500,000 cell/1 ml with increasing concentrations of PF-00477736 (0.1, 0.5, and 1 μM for NALM-6 and SUP-B15; 0.05, 0.1, and 0.2 μM for RPMI-8402 and BV-173). After 6 and 24 h, cells were harvested and fixed overnight using ethanol at 70 %. Then, cells were stained using PI/RNase Staining Buffer according to the manufacturer’s instruction (BD Pharmingen), and the cell cycle profile was detected using FACSCanto II instrument. The percentage of the different cell cycle phases was performed using the DNA cell-cycle analysis software for flow cytometry data, ModFit LT (Verity).

[3] = tested on: RPMI-8402, BV-173, and SUP-B15 cell lines; assay: Cell cycle analysis (propidium iodide); assay type: cell-based, human; settings: increasing concentrations, 24 h; concomitant increment of cell debris
Procedure: as §1, §2

[4] = tested on: c-Jun in B-/T-ALL cell lines; assay: Western blot against c-Jun; assay type: cell-based, human; settings: after treatment; response heterogeneous in T-ALL cell lines
Procedure: In order to identify gene expression changes specifically correlated with Chk1 inhibition and to better elucidate the mechanism of action of Chk1 inhibitor, gene expression profiling (GEP) analysis was performed by microarray on treated B/T-ALL cell lines (BV-173, SUP-B15, REH, NALM-6, NALM-19, MOLT-4, RPMI-8402, and CCRF-CEM) and on their untreated counterparts (DMSO 0.1 %) after 24 h of drug exposure. […] To identify peculiar critical pathways affected by Chk1 inhibition, the differentially expressed genes were analyzed in terms of biological function using the MetaCore pathway mapping software (GeneGo Inc.) which categorizes genes in pathway maps, Gene Ontology (GO) cellular processes, and cellular and molecular process networks. […] Finally, the three top scored process networks impaired by the treatment with Chk1 inhibitor were as follows: the DNA damage checkpoint, the S phase of cell cycle, and the apoptosis, confirming the specificity of treatment on its target pathways (Additional file 4). […]
To gain insight into the molecular mechanisms responsible for cell death following treatment, functional analyses by Western blot were performed. […] Finally, all these antibodies were detected using the enhanced chemiluminescence kit ECL (GE) and the compact darkroom ChemiDoc-It (UVP).

[5] = tested on: NALM-6 cells; settings: NALM-6 γ-H2A.X positive cells
Procedure: The so-called hyper-γ-H2A.X-positive cells loose the typical foci signal of γ-H2A.X and emit a much higher and diffuse signal of γ-H2A.X positivity.
NALM-6 and BV-173 cells were seeded to poly-D lysine-coated slides, fixed with 4 % PFA (paraformaldehyde), and stained at 37 °C with a mouse anti-H2A.X-Phosphorylated Alexa 647 conjugated antibody (BioLegend). Then, they were treated with DAPI (4.6 diamidino-2-phenylindole; Sigma Aldrich), and the slides were mounted with Mowiol (Calbiochem). Images were acquired with wide field fluorescence microscope Olympus BX61 fully motorized driven by Metamorph software, and the analysis was performed using the freeware ImageJ software.

`Cn1cc(-c2[nH]c3cc(NC(=O)[C@H](N)C4CCCCC4)cc4c3c2C=NNC4=O)cn1` [PF-00477736] was tested, and the “overall survival vs vehicle” value ([1]; 40 mg/kg intraperitoneally q3dx4, five treated vs seven control mice, p value =0.0009, listed as PF-0477736) was “significantly increases the overall survival; also recorded: increases the survival of treated mice”, the “survival of treated animals post transplantation” value ([1]; 40 mg/kg intraperitoneally q3dx4 from day 3 after transplant, five mice, controls (PBS) die all at day 17) was “up to 59 days” and the “toxicity for the animals” value ([1]; 40 mg/kg, q3dx4 schedule, intraperitoneally) was “seems not to be toxic”. The cell cycle profile [2] was “progressively increased the percentage of cells in G2/M phase”, the cell cycle profile [3] was “progressive reduction of the number of cells in S and G2/M phase” and the c-Jun protein levels [4] was “c-Jun protein levels increased in all B-ALL cell lines”. The “fold change of mean value intensity of γ-H2A.X, treated vs untreated” value [5] was 1.4 fold.

Reference: publication PMC4635624, “In vitro and in vivo single-agent efficacy of checkpoint kinase inhibition in acute lymphoblastic leukemia” (Journal of Hematology & Oncology, 2015)
